Test results from patent US9339488B2, “Anti-cervical cancer compound and method of use thereof” (Hong Kong Baptist University, priority 2013, dated 2016).

Assays:
[1] = test system: HeLa LC3-GFP cells; test: Fluorescence microscopy of GFP-LC3 puncta formation (autophagy); type: cell-based, human; details: 1-20 μM for 24 hours, 10 μM for 6, 12 and 24 hours, FIG. 1, 2
Description: LC3, a known autophagy indicator, is used to show Griffipavixanthone's ability to induce autophagy in cancer cells and thus provide anti-cancer property. 1×10^5/ml HeLa LC3-GFP cells are seeded in a 35 mm×10 mm culture dish and preincubated for 24 hours before treatment with griffipavixanthone. HeLa LC3-GFP cells are treated with vehicle (control), 1 μM, 5 μM, 10 μM and 20 μM for 24 hours. After treatment of griffipavixanthone, the medium is removed from the dish and 4% methyl aldehyde with 0.3% triton-100 is added for fastening and permeation. The staining solution DAPI is added. Fluorescence of the bound dyes is analyzed using a laser scanning confocal microscope (FV10i, OlympusCorporation, Japan). […] Griffipavixanthone induces autophagy in cervical cancer cells at concentration and time dependent manner.

[2] = test system: HeLa cells; test: MTT cytotoxic assay; type: cell-based; details: 0.1-20 μM, 72 hours; FIG. 3
Description: Human cervical cancer cell lines HeLa are maintained in DMEM (Invitrogen) supplemented with 10% newborn calf serum (Gibco, Life technologies Corporation, New Zealand), 1% penicillin/streptomycin (Invitrogen). Cells are maintained in a humidified atmosphere containing 5% CO2 at 37° C.
4×10^4/ml HeLa cells are seeded in a 96-well plate and preincubated for 24 hours before treatment with Griffipavixanthone (0.1-20 μM). After 72 hours, 10 μl of MTT solution (5 mg/ml) (Sigma Chemical Company, St. Louis, Mo., USA) are added to each well for 4 hours. The resulting crystals are dissolved in DMSO. The controls are native cells treated with medium only. The spectrophotometric absorbance at 570 nm is measured using a microplate reader (Synergy HT, Bio-Tek Instruments Inc., Winooski, Vt., USA). The percentage cytotoxicity is calculated by the formula: Percentage cytotoxicity (cell death)=[1-(absorbance of experimental wells/absorbance of control wells)]×100%.

[3] = test system: HeLa cells; test: Flow cytometer (FACS, PI staining) analysis of cell death; type: cell-based, human; details: 1 and 10 μM, 24 hours; DMEM vs EBSS (serum-free medium); FIG. 4
Description: 3×10^5/ml HeLa cells are treated with Griffipavixanthone (1 and 10 μM) for 24 hours. Cells are trypsinized and fixed in ice-cold 100% methanol overnight at 4° C. Cells are washed, incubated with the staining solution (100 μg/ml RNase A and 20 μg/ml PI in Phosphate Buffer Saline (PBS) with 5% NBCS) for 60 minutes, and subjected to fluorescence activated cell sorting (FACS) analysis on a FACScan flowcytometer (BD PharMingen, USA). Data are analyzed using the FlowJo software.

[4] = test system: HeLa cells; test: Western blot analysis of LC3-I, LC3-II and p62 expression; type: cell-based, human; details: 0, 1 and 5 μM, 24 hours; FIG. 5
Description: 6×10^5/ml HeLa cells are treated with Griffipavixanthone (0, 1 and 5 μM) for 24 hours. Cells are collected and cleavaged by RIPA and PMSF. Proteins are extracted and separated by 12% gel SDS-PAGE, and then are transferred to PVDF. Membranes are blocked with 5% nonfat dry milk in TBST for 0.5 hour. They are incubated and exposed with the respective primary antibodies, testing the content change of protein. The primary antibodies used to detect proteins in autophagy pathway: LC3 (16, 18 kD), p62 (62 kD) and GAPDH (37 kD).

[5] = test system: HeLa cells xenograft tumor; test: Inhibition of tumor growth in HeLa xenograft nude mouse model; type: in vivo, nude mice; details: intratumor injection 40 ng/kg/day or 80 ng/kg/day once every other day for 18 days; FIG. 6
Description: A total of 2×10^6 HeLa cells suspended in 100 μL of saline are inoculated s.c. into the right flank of 4-week-old male nude mice. Drug injections are made once the tumors reach an average volume of about 100 mm^3. Mice are divided randomly into two groups and subjected to intratumor injection of vehicle or Griffipavixanthone (40 ng/kg/day or 80 ng/kg/day) once every other day for 18 days. A total 2 μg/mouse and 4 μg/mouse are given to the two groups of mice in the 18 days treatment. Tumor volume is measured by caliper measurements (V=L×W^2/2). For intratumor injection, Griffipavixanthone is prepared in 0.5% dimethyl sulfoxide, 0.5% tween 80, and 99% PBS. […] The dosage of administered Griffipavixanthone is translated to a human dosage of 3.2 ng/kg/day to 6.4 ng/kg/day with the equation: human equivalent dose=animal dose×animal Km/human Km, where mouse Km factor is 3 and human Km factor is 37 as disclosed in Reagan-Shaw, S., Nihal, M. and Ahmad N., “Dose translation from animal to human studies revisited”, The FASEB Journal, Life Science Forum, disclosure of which is incorporated herein by reference in its entity.

[6] = test system: leukemia cells, lung cancer cells and fibrosarcoma cells; details: Tetrahedron Letters 1998, 39: 9103-9106; cited from earlier work

CC1=CC2c3c(c(O)c(O)c4oc5cc(O)cc(O)c5c(=O)c34)C(c3cc(O)c(O)c4oc5cc(O)cc(O)c5c(=O)c34)C2C(C)(C)C1 (stereo not drawn) [Griffipavixanthone]
GFP-LC3 puncta formation (percentage of GFP-LC3 positive cells) [1]: increases GFP-LC3 puncta formation at concentration and time dependent manner
HeLa cell viability / cytotoxicity (MTT) [2]: inhibit HeLa cell lines at concentration dependent manner
HeLa cell death (FACS) [3]: induces HeLa cell death significantly in serum-free medium at concentration dependent manner
Autophagosome accumulation (LC3-I, LC3-II, p62 immunoblot) [4]: increases autophagosome accumulation and induces autophagy
Tumor growth (tumor volume) [5]: growth of tumor is inhibited
In vitro cytotoxicity [6]: high in vitro cytotoxity
